We go through two compounds from patent US20140302515A1, “BIOMARKERS FOR BREAST CANCER PATIENTS” (TUSKEGEE UNIVERSITY, priority 2010, published 2014).

What all share (format): cell-based
For assay [1], the system named is Kaiso. In words: EGF treatment: Kaiso nuclear localization by immunofluorescence and subcellular fractionation. Particulars: EGF 10 ng/ml; from 30 minutes to 24 hour; immunofluorescence; DU-145, DU-145WT, PC-3. The procedure:
Unless otherwise set forth herein, immunofluorescence studies comprised plating cells on a 4-chamber slide with 20000 cells. After treatment, they were then washed with PBS, fixed for 30 minutes with cold methanol at room temperature, incubated at room temperature with Lysis Buffer containing 0.1 M Tris, 0.15M NaCl, 0.01 M EGTA, 1% Triton and 1 mM PMSF, blocked for 30 mins in 5% BSA dissolved in PBS, treated with primary antibody (1:100) overnight in the cold room. Cells were stained for p120^ctn and Kaiso.
Next, steps were taken to determine if EGFR signaling was involved in increasing Kaiso levels and/or cytoplasmic to nuclear trans-localization of Kaiso. All three cell lines were treated with EGF (10 ng/ml) over increasing time intervals of 30 minutes, 1 hour, and 24 hours. […] A key finding within DU-145 cells that lack nuclear Kaiso expression was the observation of a predominant Kaiso nuclear staining. […] To determine the specificity of EGFR activity on Kaiso expression levels, an EGFR specific kinase inhibitor, PD153035, was also utilized in the presence or absence of EGF treatment.

The test system of assay [2] is Kaiso. In words: EGF treatment: Kaiso mRNA and protein levels by real-time RT-PCR and immunoblot. The method, then:
Unless otherwise herein described, growth factors, such as recombinant human epidermal growth factor (“EGF”), were obtained commercially and was added to serum free media of DMEM and T-media with antibiotics.
Since EGFR over-expressing DU-145WT cells express higher levels of Kaiso than the original DU-145 cells, experiments were further conducted to determine if EGFR signaling would have a direct effect on Kaiso localization and/or expression in prostate cancer cells. As an initial experiment, a dose dependent treatment of EGF consisting of 10, 50 and 100 ng/ml was performed.
(In qPCR the cycle at which signal appears reflects the starting amount.)

For the next assay, the system named is p120^ctn. Put plainly: EGF stimulation: p120ctn tyrosine residues Y228, Y96, Y291. Particulars: after 24 hours, DU-145 and DU-145WT. The method, then:
Previous reports have observed that p120^ctn has a specific kinase activity for EGFR on tyrosine residue Y228. Additionally, p120^ctn is a known binding partner for Kaiso. Therefore, experiments were conducted determine whether this was apparent in prostate cancer cell lines as well. Given that p120^ctn has multiple tyrosine residues, including Y228, Y96, Y291, located within the regulator domain, the effect of EGF stimulation on each of these residues was studied. […] It was observed by immunofluorescence that Y228 expression remained cytosolic after 24 hours of EGF treatment.

A further assay concerns EGFR. Put plainly: EGFR kinase inhibitor treatment, with or without EGF: Kaiso expression levels and nuclear staining. The procedure: Next, steps were taken to determine if EGFR signaling was involved in increasing Kaiso levels and/or cytoplasmic to nuclear trans-localization of Kaiso. All three cell lines were treated with EGF (10 ng/ml) over increasing time intervals of 30 minutes, 1 hour, and 24 hours. […] To determine the specificity of EGFR activity on Kaiso expression levels, an EGFR specific kinase inhibitor, PD153035, was also utilized in the presence or absence of EGF treatment.

“EGF: recombinant human epidermal growth factor, obtained commercially”: in the assay with Kaiso [1], the “nuclear accumulation of Kaiso” value is recorded as “Visible nuclear accumulation of Kaiso”. Also, the “increase in Kaiso mRNA and protein levels” value in the assay with Kaiso [2] (EGF 10 ng/ml (lowest of 10, 50, 100 ng/ml), real-time RT-PCR and immunoblot) is reported as “At least a two-fold increase”. Further, the Kaiso increases with Kaiso [2] (EGF 10 ng/ml, 24 hour period, EGFR over-expressing DU145WT cells) is on record as 4 fold. Moreover, the “Kaiso increases at RNA and protein levels” value with Kaiso [2] (EGF 10 ng/ml, over 24 hour period, DU-145 and PC-3 cells) is recorded as “incremental Kaiso increases”. In addition, in the assay on p120^ctn, the “expression of p120ctn Y228 (versus Y96 and Y291)” value is “induced the specific increased expression of Y228”.
Take `COc1cc2ncnc(Nc3cccc(Br)c3)c2cc1OC` [PD153035]: in the assay on EGFR (500 nM), the Kaiso expression levels entry is listed as “significantly reduced”. For the same compound, the “nuclear Kaiso staining” value in the assay with EGFR (DU-145 and PC-3 cells) is listed as “lack of nuclear Kaiso staining”. For the same compound, in the assay with EGFR (pre-treatment before EGF, DU-145 and PC-3 cells), the “EGF induced increases in Kaiso levels” value is listed as “completely blocked”.
